{"source": "paper PMC9629855", "about": "“Development of ASIC1a ligand-gated ion channel drug screening assays across multiple automated patch clamp platforms” (Frontiers in Molecular Neuroscience, 2022)", "key": {"[1]": {"system": "\"ASIC1-like\" pH-activated currents in rat dorsal root ganglion neurons", "set-up": "method as in Dubé et al., 2005", "details": "ref Dubé et al., 2005, read-out: Literature IC50; cited from earlier work"}, "hASIC1a [2]": {"target": "T1, hASIC1a (Homo sapiens, UniProt P78348)", "T1 sequence (P78348 1-528)": "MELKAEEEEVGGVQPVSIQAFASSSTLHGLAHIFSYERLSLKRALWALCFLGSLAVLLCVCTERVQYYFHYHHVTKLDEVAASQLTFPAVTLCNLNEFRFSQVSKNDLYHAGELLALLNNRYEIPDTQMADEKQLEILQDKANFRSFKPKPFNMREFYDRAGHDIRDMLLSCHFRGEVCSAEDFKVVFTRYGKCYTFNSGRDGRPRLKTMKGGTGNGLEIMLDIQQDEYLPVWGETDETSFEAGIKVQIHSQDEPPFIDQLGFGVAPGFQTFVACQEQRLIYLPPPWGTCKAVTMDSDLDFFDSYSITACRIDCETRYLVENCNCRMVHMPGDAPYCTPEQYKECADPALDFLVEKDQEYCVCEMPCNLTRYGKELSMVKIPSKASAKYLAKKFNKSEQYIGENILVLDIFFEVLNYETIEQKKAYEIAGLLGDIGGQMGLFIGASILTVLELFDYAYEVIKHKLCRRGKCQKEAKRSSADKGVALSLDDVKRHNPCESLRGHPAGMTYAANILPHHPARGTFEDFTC", "test": "cell-based", "set-up": "host or cells: CHO (tetracycline-inducible)", "details": "pH 6.5 agonist, QPatch 48 single hole; for IC50: 2 min pre-incubation", "procedure": "(§1) CHO hASIC1a cells were cultured according to vendor instructions (B-SYS GmbH) and HEK cells using standard in-house methods. Both cell lines were harvested using optimized protocols and re-suspended in serum-free media (Gibco CHO-S-SFM from Thermo Fisher Scientific for CHO cells, and Ex-Cell 302 from Merck Sigma-Aldrich for HEK cells) to obtain a suspension of cells with smooth membranes and little debris, before transfer to the automated cell hotel consisting of a 60 ml plastic container (Sophion SB2050) and a magnetic stir bar to prevent cell clumping. An aliquot of cells is then aspirated into a 1 ml microcentrifuge tube and spun down (typically 150 g for 2.5 min) and the supernatant discarded before a user-defined volume of external solution is added by the robot and the cells re-suspended to achieve the desired final cell suspension density before application to primed QPlates. Cell capture, sealing and whole-cell access was achieved using optimized QPatch protocols before currents were recorded using a holding potential of −60 mV. […] Cells were washed three times with external pH 7.3 solution (5 μl) between applications of activating acidic solution to establish a stable ASIC1a current baseline. […] Each concentration of reference compound was applied to each cell before (i.e., during each pH 7.3 application period) and during each pH stimulus (IC50 mode). Thus, each concentration of test compound was pre-incubated with cells for at least 2 min before, and then during each acidic solution challenge, before wash-off in a neutral pH 7.3 solution that contained the next concentration of the same compound. Cells were allowed at least 2 min between applications of acidic solution to enable ASIC1a receptors to recover from desensitization.\n(§2) Concentration-response xC50 curves from Patchliner and QPatch 48 experiments were calculated by plotting %inhibition (antagonists) or activation (pH) data against concentration in Prism software (GraphPad), using the variable sigmoidal dose-response function to fit the Hill equation with theoretical minimum block of 0% and maximum block of 100% and a free constant for Hill slope.\nIn addition, this protocol is designed to avoid tachyphylaxis associated with a more acidic pH stimulus, and it allows the development of a ligand-gated ASIC1a channel assay that can distinguish between agonists, partial agonists and antagonists. […] Compounds were tested using the cumulative concentration-response assay format shown in Figure 5A, which includes a 2 min pre-incubation period for each concentration to allow test samples to reach and equilibrate with their binding site(s) in the pore or large extracellular binding domain of ASIC1 receptor trimers. Agonist effects can also be detected during this period as membrane current data is recorded after every liquid addition. […] Mean inhibition data for each test sample is plotted against Log[compound] and fit with a concentration-response function."}, "ASIC1a": {"system": "ASIC1a", "set-up": "method as in Nagaeva et al., 2016", "details": "ref Nagaeva et al., 2016; cited from earlier work"}, "[3]": {"system": "endogenous proton-activated currents in HEK cells", "test": "cells", "type": "cell-based, human", "details": "HEK cells", "procedure": "as §1\nas §2, with “slope. Inward current amplitudes were compared to the response to a control pH application (typically pH 6.5) prior to antagonist application or excitation by solutions of different pH to enable calculation of %inhibition or %activation for each cell.” for “slope.”\nTo quickly confirm a previous publication that HEK cells express endogenous ASIC1a receptor channels and assess the suitability of this cell system for drug discovery screening on APC platforms, we utilized the medium throughput QPatch 48 device. The QPatch uses 48 well microfluidic planar borosilicate chips and coated titanium pipette tips to make whole-cell recordings and sequentially apply small liquid volumes to enable rapid activation followed by slower deactivation (wash-off) of ligand-gated ionotropic responses. HEK cells were voltage-clamped at −60 mV and maintained in external solution at pH 7.4 to avoid steady-state desensitization of ASIC1 receptor channels. Cells were stimulated by external solutions with pH values ranging between 7.0 and 5.5 that evoked rapidly activating inward currents, followed by wash-off in pH 7.4 solution."}, "rat ASIC1a": {"system": "rat ASIC1a", "set-up": "method as in Diochot et al., 2012", "details": "ref Diochot et al., 2012, read-out: IC50 potency for the rat ortholog; cited from earlier work"}, "TRPV1 receptor channels": {"system": "TRPV1 receptor channels", "set-up": "method as in Diochot et al., 2012", "details": "ref Diochot et al., 2012; cited from earlier work"}, "hASIC1a [4]": {"target": "T1, hASIC1a", "set-up": "host or cells: CHO", "details": "ref Diochot et al., 2012, cited from earlier work"}, "hASIC1a [5]": {"target": "T1, hASIC1a", "test": "QPatch 48 APC, CHO hASIC1a, multi-hole (10 hole X-plate) recordings", "type": "cell-based", "set-up": "host or cells: CHO (tetracycline-inducible)", "procedure": "as §1, §2\nBefore employing a more efficient multi-hole assay it is important to establish that this variant of the APC whole-cell recording format returns the same biophysics and pharmacology as single cell recordings. To this end we ran some of the reference compounds detailed above in 10 hole “X-plate” mode on the QPatch 48."}}, "note": "Values joined by “and” are separate entries in the source; they are usually repeats but may differ in a detail not shown here. Equal values may be shown once. Read-outs that look alike come from different tables or passages of the source. Bridges are numbered along the chain shown (N, C = ends). Where no end group is shown, it is not given here.", "data": [{"compound": "CC(C)C1c2cc(C3CC3c3ccc4cc(C(=N)N)ccc4c3)ccc2CCN1C", "note": "(centres unmarked) [A-317567]", "values": [{"measurement": "IC50", "setting": "[1]", "value": 2000, "unit": "nM"}, {"measurement": "IC50", "setting": "hASIC1a [2]; read-out: IC50 potency", "value": 660, "unit": "nM"}, {"measurement": "Hill slope", "setting": "hASIC1a [2]", "value": 0.9}]}, {"compound": "NC12CC3CC(CC(C3)C1)C2", "note": "[Amantadine]", "values": [{"measurement": "IC50", "setting": "hASIC1a [2]; read-out: IC50 potency", "value": 510000, "unit": "nM"}, {"measurement": "Hill slope", "setting": "hASIC1a [2]", "value": 0.9}]}, {"compound": "CC12CC3CC(C)(C1)CC(N)(C3)C2", "note": "[Memantine]", "values": [{"measurement": "Literature inhibition at 500 μM", "setting": "ASIC1a", "value": 31, "unit": "% at 500 μM"}, {"measurement": "IC50", "setting": "hASIC1a [2]; read-out: IC50 potency", "value": 315000, "unit": "nM"}, {"measurement": "Hill slope", "setting": "hASIC1a [2]", "value": 1.1}]}, {"compound": "N.N.N.N.N.N.N.N.N.N.N.N.N.N.[Cl-].[Cl-].[Cl-].[Cl-].[Cl-].[Cl-].[O-2].[O-2].[Ru+3].[Ru+3].[Ru+4]", "note": "[Ruthenium Red]", "values": [{"measurement": "inhibition of amplitude of currents activated by pH 6.5", "setting": "[3]; 1 μM Ruthenium Red", "value": "12 ± 7", "unit": "%"}]}, {"compound": "LKCYQHGKVVTCHRDMKFCYHNIGMPFRNLKLILQGCSSSCSETENNKCCSTDRCNK (disulfide 3-19, 12-37, 41-49, 50-55) [Mambalgin-3]", "values": [{"measurement": "block of endogenous proton-activated currents", "setting": "[3]; 300 nM", "value": "~75", "unit": "%"}, {"measurement": "potentiation of endogenous pH-evoked responses", "setting": "[3]", "value": "no evidence for such modulation"}, {"measurement": "IC50", "setting": "[3]; pH 6.5 activation, QPatch 48, read-out: cumulative IC50", "value": 119, "unit": "nM"}, {"measurement": "IC50", "setting": "rat ASIC1a", "value": "17 to 55", "unit": "nM"}, {"measurement": "inhibition of TRPV1 receptor channels", "setting": "TRPV1 receptor channels", "value": "does not inhibit"}, {"measurement": "IC50", "setting": "hASIC1a [4]; read-out: Literature IC50", "value": 127, "unit": "nM"}, {"measurement": "IC50", "setting": "hASIC1a [2]; IC50 potency", "value": 160, "unit": "nM"}, {"measurement": "Hill slope", "setting": "hASIC1a [2]", "value": 1.8}, {"measurement": "IC50", "setting": "hASIC1a [5]", "value": 160, "unit": "nM"}, {"measurement": "Hill slope (Hn)", "setting": "hASIC1a [5]; multi-hole recordings, QPatch 48", "value": 1.80}]}, {"compound": "Mambalgin-1 (LKCYQHGKVVTCHRDMKFCYHNTGMPFRNLKLILQGCSSSCSETENNKCCSTDRCNK; ends and bridges not checked; cysteine pairing not given here; UniProt P0DKR6 22-78, looked up) [snake toxin differing from Mambalgin-3 at one non-critical amino acid residue]", "values": [{"measurement": "IC50", "setting": "hASIC1a [4]; Sun et al., 2018, read-out: quoted values against human ASIC1a channels", "value": "127 nM and 197 nM"}]}]}
